Measured values: patent US20190071416A1, “COMPOUNDS FOR TREATMENT OF CANCER AND EPIGENETICS” (Agency For Science, Technology and Research, priority 2015, published 2019)

Target: T1, SMYD3 (Homo sapiens, UniProt Q9H7B4)
T1 sequence (Q9H7B4 1-428): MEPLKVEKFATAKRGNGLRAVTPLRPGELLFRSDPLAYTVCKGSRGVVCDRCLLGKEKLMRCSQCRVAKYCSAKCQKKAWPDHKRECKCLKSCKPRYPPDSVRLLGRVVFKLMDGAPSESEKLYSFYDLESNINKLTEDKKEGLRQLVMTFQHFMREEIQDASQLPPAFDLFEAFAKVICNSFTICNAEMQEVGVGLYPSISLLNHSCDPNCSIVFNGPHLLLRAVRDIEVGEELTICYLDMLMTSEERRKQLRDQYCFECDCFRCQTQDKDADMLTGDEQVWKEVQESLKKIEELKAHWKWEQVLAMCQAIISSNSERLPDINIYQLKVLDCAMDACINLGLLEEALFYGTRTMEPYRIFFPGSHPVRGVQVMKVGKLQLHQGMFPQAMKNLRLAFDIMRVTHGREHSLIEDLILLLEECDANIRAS
Assay: SMYD3 biochemical assay (MTase-Glo, MAP3K2 peptide substrate)
Conditions: Table 3; MTase assay, MAP3K2 peptide substrate; read-out: IC50
Method in brief: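 Methylation of MAP3K2 peptide (10 µM final) with SAM (1.0 µM final) by SMYD3, 30 min at room temperature. SAH formed was enzymatically converted to ATP and detected as luminescence with MTase-Glo reagents; IC50 by non-linear regression.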

| Structure (SMILES) | IC50 [nM] |
| --- | --- |
| CCCOC(=O)N1CCN(C(=O)c2ccc3c(Cl)cc(-c4ccccc4)nc3c2)[C@@H](C)C1 [B014, Propyl (S)-4-(4-chloro-2-phenylquinoline-7-carbonyl)-3-methylpiperazine-1-carboxylate] | 170 |
| CCCOC(=O)N1CCN(C(=O)c2ccc3c(Cl)cc(-c4ccccc4)nc3c2)[C@H](C)C1 [B015, Propyl (R)-4-(4-chloro-2-phenylquinoline-7-carbonyl)-3-methylpiperazine-1-carboxylate] | 190 |
| CCCOC(=O)N1CCN(C(=O)c2ccc3c(Cl)c(C)c(-c4ccccc4)nc3c2)[C@H](C)C1 [B017, Propyl (R)-4-(4-chloro-3-methyl-2-phenylquinoline-7-carbonyl)-3-methylpiperazine-1-carboxylate] | 300 |
| CCCOC(=O)N1CCN(C(=O)c2ccc3c(Cl)cc(-c4ccccc4)nc3c2)C[C@@H]1C [B018, Propyl (S)-4-(4-chloro-2-phenylquinoline-7-carbonyl)-2-methylpiperazine-1-carboxylate] | 130 |
| CCCOC(=O)N1CCN(C(=O)c2ccc3c(Cl)c(C)c(-c4ccc(C(F)(F)F)cc4)nc3c2)CC1 [B020, Propyl 4-(4-chloro-3-methyl-2-(4-(trifluoromethyl)phenyl)quinoline-7-carbonyl)piperazine-1-carboxylate] | 3200 |
| CCCOC(=O)N1CCN(C(=O)c2ccc3c(Cl)c(C)c(-c4ccc(Cl)cc4)nc3c2)CC1 [B021, Propyl 4-(4-chloro-2-(4-chlorophenyl)-3-methylquinoline-7-carbonyl)piperazine-1-carboxylate] | 1300 |
| CCCOC(=O)N1CCN(C(=O)c2ccc3c(Cl)c(C)c(-c4ccc(F)cc4)nc3c2)CC1 [B022, Propyl 4-(4-chloro-2-(4-fluorophenyl)-3-methylquinoline-7-carbonyl)piperazine-1-carboxylate] | 850 |
| CCCOC(=O)N1CCN(C(=O)c2ccc3c(Cl)c(C)c(-c4ccc(C)cc4)nc3c2)[C@H](C)C1 [B023, Propyl (R)-4-(4-chloro-3-methyl-2-(p-tolyl)quinoline-7-carbonyl)-3-methylpiperazine-1-carboxylate] | 690 |
| CCCOC(=O)N1CCN(C(=O)c2ccc3c(Cl)c(C)c(-c4ccc(C)cc4)nc3c2)[C@@H](C)C1 [B024, Propyl (S)-4-(4-chloro-3-methyl-2-(p-tolyl)quinoline-7-carbonyl)-3-methylpiperazine-1-carboxylate] | 670 |
| CCCOC(=O)N1CCN(C(=O)c2ccc3c(Cl)c(C)c(-c4ccc(C)cc4)nc3c2)CC1 [B025, Propyl 4-(4-chloro-3-methyl-2-(p-tolyl)quinoline-7-carbonyl)piperazine-1-carboxylate] | 670 |
| CCCOC(=O)N1CCN(C(=O)c2ccc3c(Cl)c(C)c(-c4ccccc4C)nc3c2)CC1 [B027, Propyl 4-(4-chloro-3-methyl-2-(o-tolyl)quinoline-7-carbonyl)piperazine-1-carboxylate] | 1200 |
| CCCOC(=O)N1CCN(C(=O)c2ccc3c(Cl)c(C)c(-c4cccc(OC)c4)nc3c2)CC1 [B029, Propyl 4-(4-chloro-2-(3-methoxyphenyl)-3-methylquinoline-7-carbonyl)piperazine-1-carboxylate] | 1400 |
| CCCOC(=O)N1CCN(C(=O)c2ccc3c(Cl)cc(-c4cccc(C(N)=O)c4)nc3c2)CC1 [B033, Propyl 4-(2-(3-carbamoylphenyl)-4-chloroquinoline-7-carbonyl)piperazine-1-carboxylate] | 210 |
| CCCOC(=O)N1CCN(C(=O)c2ccc3c(Cl)c(C)c(-c4ccc(OC)cc4)nc3c2)C[C@@H]1C [B034, Propyl (S)-4-(4-chloro-2-(4-methoxyphenyl)-3-methylquinoline-7-carbonyl)-2-methylpiperazine-1-carboxylate] | 120 |
| CCCOC(=O)N1CCN(C(=O)c2ccc3c(Cl)c(C)c(-c4cccc(C(N)=O)c4)nc3c2)CC1 [B035, Propyl 4-(2-(3-carbamoylphenyl)-4-chloro-3-methylquinoline-7-carbonyl)piperazine-1-carboxylate] | 1000 |
| CCCOC(=O)N1CCN(C(=O)c2ccc3c(Cl)c(C)c(-c4ccc(OC)cc4)nc3c2)C[C@H]1C [B036, Propyl (R)-4-(4-chloro-2-(4-methoxyphenyl)-3-methylquinoline-7-carbonyl)-2-methylpiperazine-1-carboxylate] | 150 |
| CCCOC(=O)N1CCN(C(=O)c2ccc3c(Cl)c(C)c(-c4ccc(C#N)cc4)nc3c2)CC1 [B037, Propyl 4-(4-chloro-2-(4-cyanophenyl)-3-methylquinoline-7-carbonyl)piperazine-1-carboxylate] | 1800 |
| CCCOC(=O)N1CCN(C(=O)c2ccc3c(Cl)cc(Nc4ccc(OC)cc4)nc3c2)CC1 [B041, Propyl 4-(4-chloro-2-((4-methoxyphenyl)amino)quinoline-7-carbonyl)piperazine-1-carboxylate] | 1200 |
| CCCOC(=O)N1CCN(C(=O)c2ccc3c(Cl)c(C)c(-c4cccc([N+](=O)[O-])c4)nc3c2)CC1 [B043, Propyl 4-(4-chloro-3-methyl-2-(3-nitrophenyl)quinoline-7-carbonyl)piperazine-1-carboxylate] | 2400 |
| CCCOC(=O)N1CCN(C(=O)c2ccc3c(Cl)c(C)c(-c4cccc(N)c4)nc3c2)CC1 [B044, Propyl 4-(2-(3-aminophenyl)-4-chloro-3-methylquinoline-7-carbonyl)piperazine-1-carboxylate] | 45 |
| CCCOC(=O)N1CCN(C(=O)c2ccc3c(Cl)cc(-c4ccc(OC)cc4)nc3c2)C[C@H]1C [B045, Propyl (R)-4-(4-chloro-2-(4-methoxyphenyl)quinoline-7-carbonyl)-2-methylpiperazine-1-carboxylate] | 440 |
| CCCOC(=O)N1CCN(C(=O)c2ccc3c(Cl)cc(-c4ccc(OC)cc4)nc3c2)[C@@H](C)C1 [B047, Propyl (S)-4-(4-chloro-2-(4-methoxyphenyl)quinoline-7-carbonyl)-3-methylpiperazine-1-carboxylate] | 230 |
| CCCOC(=O)N1CCN(C(=O)c2ccc3c(Cl)cc(-c4cc(F)cc(F)c4)nc3c2)CC1 [B048, Propyl 4-(4-chloro-2-(3,5-difluorophenyl)quinoline-7-carbonyl)piperazine-1-carboxylate] | 3000 |
| CCCOC(=O)N1CCN(C(=O)c2ccc3c(Cl)cc(-c4cccc(F)c4)nc3c2)CC1 [B049, Propyl 4-(4-chloro-2-(3-fluorophenyl)quinoline-7-carbonyl)piperazine-1-carboxylate] | 1000 |

Further compounds by falling IC50, results first:

| IC50 [nM] | Structure (SMILES) |
| --- | --- |
| 5800 | CCCOC(=O)N1CCN(C(=O)c2ccc3c(Cl)c(C)c(-c4cccc(F)c4F)nc3c2)CC1 [B030, Propyl 4-(4-chloro-2-(2,3-difluorophenyl)-3-methylquinoline-7-carbonyl)piperazine-1-carboxylate] |
| 5500 | CCCOC(=O)N1CCN(C(=O)c2ccc3c(Cl)c(C)c(-c4cccc(C#N)c4)nc3c2)CC1 [B032, Propyl 4-(4-chloro-2-(3-cyanophenyl)-3-methylquinoline-7-carbonyl)piperazine-1-carboxylate] |
| 3200 | CCCOC(=O)N1CCN(C(=O)c2ccc3c(Cl)cc(Nc4ccccc4)nc3c2)CC1 [B040, Propyl 4-(4-chloro-2-(phenylamino)quinoline-7-carbonyl)piperazine-1-carboxylate] |
| 3100 | CCCOC(=O)N1CCN(C(=O)c2ccc3c(Cl)cc(Nc4cccnc4)nc3c2)CC1 [B042, Propyl 4-(4-chloro-2-(pyridin-3-ylamino)quinoline-7-carbonyl)piperazine-1-carboxylate] |
| 1100 | CCCOC(=O)N1CCN(C(=O)c2ccc3c(Cl)c(C)c(-c4cccc(C)c4)nc3c2)CC1 [B028, Propyl 4-(4-chloro-3-methyl-2-(m-tolyl)quinoline-7-carbonyl)piperazine-1-carboxylate] |
| 280 | CCCOC(=O)N1CCN(C(=O)c2ccc3c(Cl)c(C)c(-c4ccc(OC)cc4)nc3c2)CC1 [B031, Propyl 4-(4-chloro-2-(4-methoxyphenyl)-3-methylquinoline-7-carbonyl)piperazine-1-carboxylate] |
| 270 | CCCOC(=O)N1CCN(C(=O)c2ccc3c(Cl)c(C)c(-c4ccc(OC)cc4)nc3c2)[C@@H](C)C1 [B026, Propyl (S)-4-(4-chloro-2-(4-methoxyphenyl)-3-methylquinoline-7-carbonyl)-3-methylpiperazine-1-carboxylate] |
| 260 | CCCOC(=O)N1CCN(C(=O)c2ccc3c(Cl)cc(-c4ccc(OC)cc4)nc3c2)CC1 [B046, Propyl 4-(4-chloro-2-(4-methoxyphenyl)quinoline-7-carbonyl)piperazine-1-carboxylate] |
| 150 | CCCOC(=O)N1CCN(C(=O)c2ccc3c(Cl)c(C)c(-c4ccccc4)nc3c2)[C@@H](C)C1 [B016, Propyl (S)-4-(4-chloro-3-methyl-2-phenylquinoline-7-carbonyl)-3-methylpiperazine-1-carboxylate] |
| 99 | CCCOC(=O)N1CCN(C(=O)c2ccc3c(Cl)c(C)c(-c4cccc(CN)c4)nc3c2)CC1 [B038, Propyl 4-(2-(3-(aminomethyl)phenyl)-4-chloro-3-methylquinoline-7-carbonyl)piperazine-1-carboxylate] |
| 91 | CCCOC(=O)N1CCN(C(=O)c2ccc3c(Cl)cc(-c4cccc(CN)c4)nc3c2)CC1 [B039, Propyl 4-(2-(3-(aminomethyl)phenyl)-4-chloroquinoline-7-carbonyl)piperazine-1-carboxylate] |
